The results in this text go back to publication doi:10.1101/2024.08.06.606911v7 (biorxiv, 2025).

What is called Kd is a measure of binding affinity in units of concentration.

Structures are written as SMILES.

The target in this assay is PTEN (GST-PTEN; Myc-PTEN) (Homo sapiens, UniProt P60484). Put plainly: SPR, BIACORE […], PTEN immobilised on CM5 chip. It is filed as binding. (SPR reads the build-up and loss of mass on a sensor chip optically.)
Sequence of PTEN (GST-PTEN; Myc-PTEN) (P60484 whole entry): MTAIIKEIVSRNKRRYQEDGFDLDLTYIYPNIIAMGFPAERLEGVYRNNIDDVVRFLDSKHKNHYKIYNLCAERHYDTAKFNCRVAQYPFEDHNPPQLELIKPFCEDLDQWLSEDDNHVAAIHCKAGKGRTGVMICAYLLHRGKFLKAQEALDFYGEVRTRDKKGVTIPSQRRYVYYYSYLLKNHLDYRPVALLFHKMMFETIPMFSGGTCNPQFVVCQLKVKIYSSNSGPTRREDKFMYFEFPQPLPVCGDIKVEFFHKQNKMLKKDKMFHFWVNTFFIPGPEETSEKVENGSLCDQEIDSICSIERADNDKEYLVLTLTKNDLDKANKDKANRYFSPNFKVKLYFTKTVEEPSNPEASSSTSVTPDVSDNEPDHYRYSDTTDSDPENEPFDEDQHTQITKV

For `C[C@@H]1O[C@@H](O[C@@H]2[C@@H](O)[C@H](OCCc3ccc(O)c(O)c3)O[C@H](CO[C@@H]3O[C@H](CO)[C@@H](O)[C@H](O)[C@H]3O)[C@H]2OC(=O)/C=C/c2ccc(O)c(O)c2)[C@H](O)[C@H](O)[C@H]1O` [Echinacoside], binding was put at a Kd of 230 µM.
